{
  "source": "ChEMBL document CHEMBL5247657",
  "about": "(J Med Chem, 2023)",
  "key": {"[1]": {"experiment": "Volume of distribution at steady state in Sprague-Dawley rat at 1 mg/kg, iv measured upto 24 hrs by LC-MS/MS analysis", "assay_type": "ADME, organism-based", "conditions": "in vivo, read-out: Vdss"}, "[2]": {"experiment": "Half-life in Sprague-Dawley rat at 1 mg/kg, iv measured upto 24 hrs by LC-MS/MS analysis", "assay_type": "ADME, organism-based", "conditions": "in vivo"}, "in vivo [3]": {"experiment": "in vivo", "conditions": "Beagle, dog, iv, 1 mg/kg"}, "in vivo [4]": {"experiment": "in vivo", "conditions": "Beagle, dog, po"}, "[5]": {"experiment": "Tmax in Sprague-Dawley rat at 5 mg/kg, po measured upto 24 hrs by LC-MS/MS analysis", "assay_type": "ADME, organism-based", "conditions": "in vivo"}, "[6]": {"experiment": "Half-life in Beagle dog at 1 mg/kg, iv measured upto 24 hrs by LC-MS/MS analysis", "assay_type": "ADME, organism-based, Canis lupus familiaris", "conditions": "in vivo"}, "[7]": {"experiment": "Volume of distribution at steady state in Beagle dog at 1 mg/kg, iv measured upto 24 hrs by LC-MS/MS analysis", "assay_type": "ADME, organism-based, Canis lupus familiaris", "conditions": "in vivo, read-out: Vdss"}, "in vivo [8]": {"experiment": "in vivo", "conditions": "Sprague-Dawley, rat, po, 5 mg/kg"}, "in vivo [9]": {"experiment": "in vivo", "conditions": "Beagle, dog, po", "remark": "listed apart in the source"}, "in vivo [10]": {"experiment": "in vivo", "conditions": "Beagle, dog, po", "remark": "listed apart in the source"}, "[11]": {"experiment": "Tmax in Beagle dog at […], po measured upto 24 hrs by LC-MS/MS analysis", "assay_type": "ADME, organism-based, Canis lupus familiaris", "conditions": "in vivo, dose 2.5 mg/kg"}},
  "data": [
    {"compound": "C=CC(=O)N1CCC([C@@H]2CCNc3c(C(N)=O)c(-c4cc(OC)c(C)c(OC)c4)nn32)CC1", "values": [
      {"measurement": "Vd", "setting": "[1]", "result": 0.9, "unit": "L/kg"},
      {"measurement": "half-life", "setting": "[2]", "result": 36, "unit": "min"},
      {"measurement": "clearance at 24 h", "setting": "in vivo [3]", "result": 6.89, "unit": "mL/min/kg"},
      {"measurement": "Cmax at 24 h", "setting": "in vivo [4]", "result": 1250, "unit": "ng/mL"},
      {"measurement": "Tmax", "setting": "[5]", "result": 15, "unit": "min"},
      {"measurement": "half-life", "setting": "[6]", "result": 150, "unit": "min"},
      {"measurement": "Vd", "setting": "[7]", "result": 0.74, "unit": "L/kg"},
      {"measurement": "AUC(0-inf) at 24 h", "setting": "in vivo [8]", "result": 964, "unit": "ng·h/mL"},
      {"measurement": "bioavailability at 24 h", "setting": "in vivo [9]", "result": 43, "unit": "%"},
      {"measurement": "AUC(0-inf) at 24 h", "setting": "in vivo [10]", "result": 2640, "unit": "ng·h/mL"},
      {"measurement": "Tmax at 24 h", "setting": "[11]", "result": 25.2, "unit": "min"}
    ]}
  ]
}
